From article PMC9820316, “Novel Arylpiperazine Derivatives of Salicylamide with α1-Adrenolytic Properties Showed Antiarrhythmic and Hypotensive Properties in Rats” (International Journal of Molecular Sciences, 2022)
Marks after values point to notes of the source that are not given here.

How the values were obtained:
α1-adrenergic receptors = assay: α1-adrenoceptor radioligand binding assay ([3H]-prazosin, rat cortex); conditions: rat cortex tissue, mean ± SEM
In short: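 Rat cerebral cortex membranes in 50 mM Tris-HCl pH 7.6, with 7–8 compound concentrations in duplicate. Nonspecific binding defined by 10 μM phentolamine for [3H]-prazosin (α1) or 10 μM clonidine for [3H]-clonidine (α2). Filtration and scintillation counting; Ki calculated.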

[1] = system: adrenaline-induced arrhythmia model in rats; assay: Prophylactic antiarrhythmic activity in adrenaline-induced arrhythmia; type: in vivo, rat; conditions: for Blocks / Bradycardia / Extrasystoles / Mortality: number of animals with event
[2] = system: calcium chloride-induced arrhythmia model in rats; assay: Prophylactic antiarrhythmic activity in calcium chloride-induced arrhythmia; type: in vivo, rat; conditions: 5 mg/kg iv 15 min before calcium chloride 140 mg/kg; number of animals with event
normal ECG in rats = assay: Effect on a normal electrocardiogram in rats; type: in vivo, rat; conditions: 5 mg/kg iv; for HR—heart rate / PQ interval / QRS complex / QTc (Bazzett's formula): mean ± SD; for PQ interval / QRS complex / QTc (Bazzett's formula): in ms (unit assumed)
Procedure: The procedure was performed to exclude the negative effects of the tested compounds on the normal ECG, according to the method described earlier. […] Firstly, animals were anesthetized with thiopental (75 mg/kg ip). […] The influence on PQ, QTc interval, QRS complex, and heart rate was evaluated. The Bazzett’s formula: QTc = QT/√RR was used to calculate QTc. All the studied compounds were administered at a dose of 5 mg/kg.

normotensive rats = assay: Influence on blood pressure in the normotensive rats; type: in vivo, rat; conditions: for DBP—diastolic blood pressure / SBP—systolic blood pressure: mean ± SD
In short: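 Anaesthetised (thiopental 75 mg/kg ip) normotensive Wistar rats with right carotid artery cannulated for direct pressure recording. Compounds given iv after 15 min stabilisation. Systolic and diastolic blood pressure were monitored.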

[3] = system: pressor response to methoxamine in rats; assay: Influence on blood vasopressor response to methoxamine in rats; type: in vivo, rat; conditions: 5 mg/kg iv, methoxamine 150 μg/kg before and 5 min after compound
In short: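 Anaesthetised (thiopental 75 mg/kg ip) normotensive Wistar rats, carotid artery cannulated. Pressor response to methoxamine (150 µg/kg, iv) recorded before and 5 min after test compound, given at its lowest hypotensive dose, after 15-min stabilisation.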

[4] = system: adrenaline-induced arrhythmia model in rats; assay: Therapeutic antiarrhythmic activity in adrenaline-induced arrhythmia; conditions: 5 mg/kg iv immediately after adrenaline 20 µg/kg; number of animals with event
[5] = 0.25 mg/kg iv 15 min before adrenaline 20 μg/kg
[6] = 0.5 mg/kg iv 15 min before adrenaline 20 μg/kg
[7] = 1 mg/kg iv 15 min before adrenaline 20 μg/kg
[8] = 0 min (prior to administration)
[9] = 2.5 mg/kg iv, 0 min (before administration)
[10] = 5.0 mg/kg iv, 0 min (before administration)

Compound: COc1ccccc1N1CCN(Cc2ccc(COc3ccccc3C(N)=O)cc2)CC1.Cl [JJGW12, 2-[(4-{[4-(2-metoxyphenyl)piperazin-1-ylo]methyl}phenyl)metoxy}benzamide hydrochloride]
- Adrenergic Receptors—pKi α1 (α1-adrenergic receptors): 7.41 ± 0.01
- Blocks [1, 5]: 6/6
- Bradycardia [1, 5]: 5/6
- Extrasystoles [1, 5]: 6/6
- Mortality [1, 5]: 3/6
- Blocks [1, 6]: 4/5
- Bradycardia [1, 6]: 3/5
- Extrasystoles [1, 6]: 4/5
- Mortality [1, 6]: 0/5
- Blocks [1, 7]: 3/5
- Bradycardia [1, 7]: 1/5
- Extrasystoles [1, 7]: 3/5
- Mortality [1, 7]: 0/5
- ED50 ([1]; prophylactic, iv 15 min before adrenaline 20 μg/kg, confidence limits in brackets (Litchfield and Wilcoxon)): 0.44 (0.10–1.98) mg/kg
- Blocks [2]: 6/6
- Bradycardia [2]: 6/6
- Extrasystoles [2]: 6/6
- Fibrillations [2]: 4/6
- Mortality [2]: 6/6
- effect on the heart rate during the ECG recording (normal ECG in rats): did not affect the heart rate
- HR—heart rate (normal ECG in rats; [8]): 254.6 ± 41.2
- PQ interval (normal ECG in rats; [8]): 44.1 ± 6.2
- QRS complex (normal ECG in rats; [8]): 41.9 ± 2.1
- QTc (Bazzett's formula) (normal ECG in rats; [8]): 190.8 ± 15.2
- HR—heart rate (normal ECG in rats; 5 min): 256.8 ± 47.1
- PQ interval (normal ECG in rats; 5 min): 43.6 ± 1.2
- QRS complex (normal ECG in rats; 5 min): 44.5 ± 3.6
- QTc (Bazzett's formula) (normal ECG in rats; 5 min): 194.3 ± 16.8
- HR—heart rate (normal ECG in rats; 10 min): 255.2 ± 53.6
- PQ interval (normal ECG in rats; 10 min): 45.9 ± 2.4
- QRS complex (normal ECG in rats; 10 min): 44.2 ± 2.3
- QTc (Bazzett's formula) (normal ECG in rats; 10 min): 190.3 ± 25.9
- HR—heart rate (normal ECG in rats; 15 min): 250.2 ± 51.5
- PQ interval (normal ECG in rats; 15 min): 45.5 ± 3.1
- QRS complex (normal ECG in rats; 15 min): 45.2 ± 5.9
- QTc (Bazzett's formula) (normal ECG in rats; 15 min): 195.8 ± 25.5
- DBP—diastolic blood pressure (normotensive rats; [9]): 95.0 ± 16.0 mmHg
- SBP—systolic blood pressure (normotensive rats; [9]): 122.2 ± 15.6 mmHg
- DBP—diastolic blood pressure (normotensive rats; 2.5 mg/kg iv, 5 min): 94.5 ± 16.5 mmHg
- SBP—systolic blood pressure (normotensive rats; 2.5 mg/kg iv, 5 min): 120.7 ± 13.8 mmHg
- DBP—diastolic blood pressure (normotensive rats; 2.5 mg/kg iv, 10 min): 87.5 ± 23.0 mmHg
- SBP—systolic blood pressure (normotensive rats; 2.5 mg/kg iv, 10 min): 114.5 ± 10.6 mmHg
- DBP—diastolic blood pressure (normotensive rats; 2.5 mg/kg iv, 20 min): 83.5 ± 22.4 mmHg
- SBP—systolic blood pressure (normotensive rats; 2.5 mg/kg iv, 20 min): 109.7 ± 9.3 mmHg
- DBP—diastolic blood pressure (normotensive rats; 2.5 mg/kg iv, 30 min): 84.0 ± 21.4 mmHg
- SBP—systolic blood pressure (normotensive rats; 2.5 mg/kg iv, 30 min): 106.5 ± 13.1 mmHg
- DBP—diastolic blood pressure (normotensive rats; 2.5 mg/kg iv, 40 min): 87.8 ± 16.7 mmHg
- SBP—systolic blood pressure (normotensive rats; 2.5 mg/kg iv, 40 min): 108.8 ± 11.8 mmHg
- DBP—diastolic blood pressure (normotensive rats; 2.5 mg/kg iv, 50 min): 89.3 ± 13.4 mmHg
- SBP—systolic blood pressure (normotensive rats; 2.5 mg/kg iv, 50 min): 110.0 ± 7.5 mmHg
- DBP—diastolic blood pressure (normotensive rats; 2.5 mg/kg iv, 60 min): 89.2 ± 13.9 mmHg
- SBP—systolic blood pressure (normotensive rats; 2.5 mg/kg iv, 60 min): 110.5 ± 8.1 mmHg
- DBP—diastolic blood pressure (normotensive rats; [10]): 95.7 ± 6.0 mmHg
- SBP—systolic blood pressure (normotensive rats; [10]): 122.5 ± 11.9 mmHg
- decrease of the systolic blood pressure (normotensive rats; 5 mg/kg iv, 50th min since administration): 13%
- DBP—diastolic blood pressure (normotensive rats; 5.0 mg/kg iv, 5 min): 87.7 ± 7.0 mmHg
- SBP—systolic blood pressure (normotensive rats; 5.0 mg/kg iv, 5 min): 120.7 ± 9.8 mmHg
- DBP—diastolic blood pressure (normotensive rats; 5.0 mg/kg iv, 10 min): 89.3 ± 8.1 mmHg
- SBP—systolic blood pressure (normotensive rats; 5.0 mg/kg iv, 10 min): 114.5 ± 9.1 mmHg
- DBP—diastolic blood pressure (normotensive rats; 5.0 mg/kg iv, 20 min): 88.5 ± 9.0 mmHg
- SBP—systolic blood pressure (normotensive rats; 5.0 mg/kg iv, 20 min): 112.8 ± 10.0 mmHg
- DBP—diastolic blood pressure (normotensive rats; 5.0 mg/kg iv, 30 min): 87.8 ± 8.8 mmHg
- SBP—systolic blood pressure (normotensive rats; 5.0 mg/kg iv, 30 min): 111.5 ± 10.4 mmHg
- DBP—diastolic blood pressure (normotensive rats; 5.0 mg/kg iv, 40 min): 87.8 ± 8.7 mmHg
- SBP—systolic blood pressure (normotensive rats; 5.0 mg/kg iv, 40 min): 113.0 ± 11.9 mmHg
- DBP—diastolic blood pressure (normotensive rats; 5.0 mg/kg iv, 50 min): 85.8 ± 8.1 mmHg
- SBP—systolic blood pressure (normotensive rats; 5.0 mg/kg iv, 50 min): 107.0 ± 12.7 ^a mmHg
- DBP—diastolic blood pressure (normotensive rats; 5.0 mg/kg iv, 60 min): 86.7 ± 10.7 mmHg
- SBP—systolic blood pressure (normotensive rats; 5.0 mg/kg iv, 60 min): 109.8 ± 12.2 mmHg
- influence on the diastolic blood pressure (normotensive rats; 5 mg/kg iv, normotensive rats): did not influence the diastolic blood pressure
- attenuation of the methoxamine pressor response [3]: 97%
- Blocks [4]: 6/6
- Bradycardia [4]: 6/6
- Mortality [4]: 6/6
